{"source": "paper PMC4976201", "about": "“Total synthesis of teixobactin” (Nature Communications, 2016)", "tested_on": "Gram-positive bacterial pathogens", "assay": "Antibacterial activity on Gram-positive bacteria, stated in words", "type": "cell-based", "details": "MIC on various Gram-positive bacteria strains", "description": "Synthetic teixobactin and its analogues were subjected to the assessment of their antimicrobial activities by determining their minimal inhibitory concentration on various Gram-positive bacteria strains including methicillin-susceptible S. aureus strain ATCC29213 and methicillin-resistant S. aureus clinical isolates. […] In this effort, the original stereo-configuration of the amino-acid residue should be thoroughly scrutinized. From our study, it is encouraging to find that Orn-containing teixobactin analogues maintained modest antibacterial activity. Since Orn is readily available as compared with L-allo-End and the synthesis of the Orn-containing cyclic depsipeptide (7–11) gave the best yield among all the analogue syntheses, which is amenable to a large-scale synthesis. Through the above-developed convergent synthetic strategy, various linear hexapeptide (1–6), such as 11, can be readily prepared and ligated to the Orn-containing the cyclic depsi-pentapeptide (7–11) to investigate the contribution of each amino acid in the linear peptide fragment towards the antibacterial activity, which will lead to the optimal structure for the development of teixobactin with improved properties."}
{"smiles": "CC[C@@H](C)[C@@H](NC(=O)[C@@H](CCC(N)=O)NC(=O)[C@H](CO)NC(=O)[C@@H](NC(=O)[C@@H](Cc1ccccc1)NC)[C@@H](C)CC)C(=O)N[C@H](C(=O)N[C@@H](CO)C(=O)N[C@H]1C(=O)N[C@@H](C)C(=O)N[C@@H](CCCNC(=N)N)C(=O)N[C@@H]([C@@H](C)CC)C(=O)O[C@H]1C)[C@@H](C)CC", "note": "[compound 14]", "values": [{"measurement": "antibacterial activity compared with natural teixobactin", "result": "reduced antibacterial activities"}]}
{"smiles": "CC[C@H](C)[C@H](NC(=O)[C@@H](Cc1ccccc1)NC)C(=O)N[C@@H](CO)C(=O)N[C@H](CCC(N)=O)C(=O)N[C@@H](C(=O)N[C@H](C(=O)N[C@@H](CO)C(=O)N[C@H]1C(=O)N[C@@H](C)C(=O)N[C@@H](CCCN)C(=O)N[C@@H]([C@@H](C)CC)C(=O)O[C@H]1C)[C@@H](C)CC)[C@@H](C)CC", "note": "[compound 16]", "values": [{"measurement": "antibacterial activity compared with natural teixobactin", "result": "reduced antibacterial activities"}]}
